Measured values reported in patent US9340549B2, “Oxazolidinone compounds and derivatives thereof” (priority 2012, dated 2016).
Like-named read-outs stand apart in the source and are kept apart here. Each block holds one compound with its values, some of them ahead of it.

Columns and labels:
[1] = molecular target: 6×HIS-tankyrase 1 (1091-1325) (Homo sapiens (Human), UniProt O95271); assay: biochemical; assay type: biochemical; conditions: […] enzyme, 400 nM NAD, 60 minutes at room temperature; read-out: TNKS1 IP IC50
Axin2 in SW480 cells = assay: cells; assay type: cell-based; conditions: read-out: Axin2 384 IF EC50 IP
Procedure, shortened: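 SW480 cells treated 24 h at 37° C (0.5% DMSO final), fixed/permeabilized, immunostained for Axin2. ArrayScan imaging quantified ring-spot intensity; Axin2 accumulation expressed as percent of control, EC50 from concentration-response.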

[2] = system: total β-catenin in SW480 colorectal cells; assay: cells; assay type: cell-based; conditions: Homo sapiens
Procedure, shortened: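 SW480 cells in growth medium (MEM alpha, 10% heat-inactivated FBS, 10 mM HEPES) treated with a 10-point, 3-fold dilution series of TNKS inhibitor for 40–48 h at 37 °C. Lysates run on an MSD sandwich immunoassay for total β-catenin, read by electrochemiluminescence.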

[3] = Homo sapiens, SW480, 24 h, SW480 cells, 24 hours
[4] = SW480 cells, 40 to 48 hours, top concentration 10 μM, read-out: SW480-Total β-Catenin IC50 IP
[5] = SW480, read-out: SW480-Total β-Catenin IC50 IP

6×HIS-tankyrase 1 (1091-1325), sequence (O95271 1091-1325): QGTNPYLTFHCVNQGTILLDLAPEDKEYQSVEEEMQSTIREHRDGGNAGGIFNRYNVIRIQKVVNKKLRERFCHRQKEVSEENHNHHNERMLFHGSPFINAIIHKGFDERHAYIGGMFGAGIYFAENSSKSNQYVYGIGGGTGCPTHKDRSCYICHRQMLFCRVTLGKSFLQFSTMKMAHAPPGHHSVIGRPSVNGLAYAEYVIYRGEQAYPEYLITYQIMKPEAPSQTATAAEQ

Structure (SMILES): CC1(C)OC(=O)N([C@H]2CC[C@@H](c3cnc(N)c(C4=NCCCN4)c3)CC2)[C@H]1c1ccccc1 [Example 76, (S)-3-((1s,4R)-4-(6-amino-5-(1,4,5,6-tetrahydropyrimidin-2-yl)pyridin-3-yl)cyclohexyl)-5,5-dimethyl-4-phenyloxazolidin-2-one]
IC50 [1]: 9840 nM
EC50 (Axin2 in SW480 cells; [3]): > 25000 nM
IC50 [2, 4]: > 10000 nM

Structure (SMILES): CC1(C)OC(=O)N([C@H]2CC[C@H](c3cnc(N)c(C4=NCCCN4)c3)CC2)[C@H]1c1ccccc1 [Example 77, (S)-3-((1r,4S)-4-(6-amino-5-(1,4,5,6-tetrahydropyrimidin-2-yl)pyridin-3-yl)cyclohexyl)-5,5-dimethyl-4-phenyloxazolidin-2-one]
IC50 [1]: 1650 nM
EC50 (Axin2 in SW480 cells; [3]): > 25000 nM
IC50 [2, 4]: > 10000 nM

Structure (SMILES): CC1(C)OC(=O)N(c2ccc(-n3cc(-c4ccccc4)[nH]c3=O)cc2)[C@H]1c1ccccc1 [Example 80, (4S)-5,5-dimethyl-3-(4-(2-oxo-4-phenyl-2,3-dihydro-1H-imidazol-1-yl)phenyl)-4-phenyl-1,3-oxazolidin-2-one]
IC50 [1]: 3080 nM
EC50 (Axin2 in SW480 cells; [3]): > 12500 nM
EC50 (Axin2 in SW480 cells; SW480 cells, 24 hours): > 25000 nM
IC50 [2, 4]: 1360 nM

IC50 [1]: 11.4 nM
EC50 (Axin2 in SW480 cells; Homo sapiens, SW480, 24 h): 840 nM
IC50 [2, 5]: 767 nM
Structure (SMILES): CC1(C)OC(=O)N([C@H]2CC[C@H](c3cc(-c4ncccn4)c[nH]c3=O)CC2)[C@H]1c1ccccc1 [Example 81, 3-(trans-4-((4S)-5,5-dimethyl-2-oxo-4-phenyl-1,3-oxazolidin-3-yl)cyclohexyl)-5-(2-pyrimidinyl)-2(1H)-pyridinone]

IC50 [1]: 195 nM
EC50 (Axin2 in SW480 cells; Homo sapiens, SW480, 24 h): 7130 nM
IC50 [2, 5]: 1340 nM
Structure (SMILES): CC1(C)OC(=O)N([C@H]2CC[C@H](c3cc(-c4ncccn4)c[nH]c3=O)CC2)[C@@H]1c1ccccc1 [Example 82, 3-(trans-4-((4R)-5,5-dimethyl-2-oxo-4-phenyl-1,3-oxazolidin-3-yl)cyclohexyl)-5-(2-pyrimidinyl)-2(1H)-pyridinone]

Structure (SMILES): CC1(C)OC(=O)N([C@H]2CC[C@H](c3nnc(-c4ccccc4)o3)CC2)C1c1ccccc1 (stereo partly shown) [Example 84, 5,5-dimethyl-4-phenyl-3-((1r,4r)-4-(5-phenyl-1,3,4-oxadiazol-2-yl)cyclohexyl)oxazolidin-2-one]
IC50 [1]: 473 nM
EC50 (Axin2 in SW480 cells; [3]): 7600 nM
IC50 [2, 4]: 4940 nM

Structure (SMILES): CC1(C)OC(=O)N([C@H]2CC[C@H](c3nnc(-c4ccccc4)o3)CC2)[C@@H]1c1ccccc1 [Example 86, (R)-5,5-dimethyl-4-phenyl-3-((1r,4R)-4-(5-phenyl-1,3,4-oxadiazol-2-yl)cyclohexyl)oxazolidin-2-one]
IC50 [1]: 32.2 nM
EC50 (Axin2 in SW480 cells; [3]): 1660 nM
IC50 [2, 4]: > 10000 nM

Structure (SMILES): CC1(C)OC(=O)N(c2ccc(-c3cc4ccncc4[nH]c3=O)cc2)[C@H]1c1ccccc1 [Example 88, (S)-5,5-dimethyl-3-(4-(2-oxo-1,2-dihydro-1,7-naphthyridin-3-yl)phenyl)-4-phenyloxazolidin-2-one]
IC50 [1]: 11.8 nM
EC50 (Axin2 in SW480 cells; [3]): 285 nM
IC50 [2, 4]: 473 nM

Structure (SMILES): CC1(c2ccccc2)CN([C@H]2CC[C@H](n3c(=O)[nH]c4cnccc43)CC2)C(=O)O1 (stereo partly drawn) [Example 89, (R+S)-5-methyl-3-((1r,4R)-4-(2-oxo-2,3-dihydro-1H-imidazo[4,5-c]pyridin-1-yl)cyclohexyl)-5-phenyloxazolidin-2-one]
IC50 [1]: 17.2 nM
EC50 (Axin2 in SW480 cells; [3]): 7030 nM
IC50 [2, 4]: 3440 nM

Structure (SMILES): CC1(c2ccccc2)CN([C@H]2CC[C@@H](n3c(=O)[nH]c4cc(C#N)ccc43)CC2)C(=O)O1 (stereo partly drawn) [Example 92, 1-((1R,4r)-4-((R+S)-5-methyl-2-oxo-5-phenyloxazolidin-3-yl)cyclohexyl)-2-oxo-2,3-dihydro-1H-benzo[d]imidazole-5-carbonitrile]
IC50 [1]: 4.9 nM
EC50 (Axin2 in SW480 cells; [3]): 183 nM
IC50 [2, 4]: 177 nM

Structure (SMILES): CC1(C)OC(=O)N([C@H]2CC[C@H](c3cnc(N)c(C#N)c3)CC2)[C@H]1c1ccccc1 [Example 95, 2-amino-5-((1S,4r)-4-((S)-5,5-dimethyl-2-oxo-4-phenyloxazolidin-3-yl)cyclohexyl)nicotinonitrile]
IC50 [1]: 6.98 nM
EC50 (Axin2 in SW480 cells; [3]): 474 nM
IC50 [2, 4]: 468 nM

Structure (SMILES): CC1(C)OC(=O)N([C@H]2CC[C@@H](c3c[nH]c(=O)c(-c4ncccn4)c3)CC2)[C@H]1c1ccccc1 [Example 96, (S)-5,5-Dimethyl-3-((1s,4R)-4-(6-oxo-5-(pyrimidin-2-yl)-1,6-dihydropyridin-3-yl)cyclohexyl)-4-phenyloxazolidin-2-one]
IC50 [1]: 511 nM
EC50 (Axin2 in SW480 cells; [3]): > 25000 nM
IC50 [2, 4]: > 10000 nM

Structure (SMILES): CC1(C)OC(=O)N([C@H]2CC[C@H](c3c[nH]c(=O)c(-c4ncccn4)c3)CC2)[C@H]1c1ccccc1 [Example 97, (S)-5,5-Dimethyl-3-((1r,4S)-4-(6-oxo-5-(pyrimidin-2-yl)-1,6-dihydropyridin-3-yl)cyclohexyl)-4-phenyloxazolidin-2-one]
IC50 [1]: 267 nM
EC50 (Axin2 in SW480 cells; [3]): > 25000 nM
IC50 [2, 4]: 4430 nM

Structure (SMILES): CC1(C)OC(=O)N([C@H]2CC[C@H](c3cnc4[nH]c(=O)n(-c5ncccn5)c4c3)CC2)[C@H]1c1ccccc1 [Example 98, (S)-5,5-dimethyl-3-((1r,4S)-4-(2-oxo-1-(pyrimidin-2-yl)-2,3-dihydro-1H-imidazo[4,5-b]pyridin-6-yl)cyclohexyl)-4-phenyloxazolidin-2-one]
IC50 [1]: 0.316 nM
EC50 (Axin2 in SW480 cells; [3]): 35.7 nM
IC50 [2, 4]: 48.2 nM

Structure (SMILES): COc1cccc([C@H]2N(c3ccc(C(=O)Nc4cccc5cccnc45)cc3)C(=O)OC2(C)C)c1 [Example 106, (R)-4-(4-(3-Methoxyphenyl)-5,5-dimethyl-2-oxooxazolidin-3-yl)-N-(quinolin-8-yl)benzamide]
IC50 [1]: 1880 nM
EC50 (Axin2 in SW480 cells; [3]): > 25000 nM
IC50 [2, 4]: 6650 nM

Structure (SMILES): CC1(C)OC(=O)N(c2ccc(C(=O)Nc3cccc4cccnc34)cc2)[C@H]1c1cccc(F)c1 [Example 110, (S)-4-(4-(3-fluorophenyl)-5,5-dimethyl-2-oxooxazolidin-3-yl)-N-(quinolin-8-yl)benzamide]
IC50 [1]: 193 nM
EC50 (Axin2 in SW480 cells; [3]): 2700 nM
IC50 [2, 4]: 1690 nM

Structure (SMILES): COc1ccc([C@@H]2N(c3ccc(C(=O)Nc4cccc5cccnc45)cc3)C(=O)OC2(C)C)cc1 [Example 113, (S)-4-(4-(4-methoxyphenyl)-5,5-dimethyl-2-oxooxazolidin-3-yl)-N-(quinolin-8-yl)benzamide]
IC50 [1]: 130 nM
EC50 (Axin2 in SW480 cells; [3]): 5220 nM
IC50 [2, 4]: 2110 nM

Structure (SMILES): CC1(C)OC(=O)N(c2ccc(-c3cc(-c4ccccn4)c[nH]c3=O)cc2)[C@H]1c1ccccc1 [Example 115, (S)-5,5-dimethyl-3-(4-(6′-oxo-1′,6′-dihydro-[2,3′-bipyridin]-5′-yl)phenyl)-4-phenyloxazolidin-2-one]
IC50 [1]: 95.3 nM
EC50 (Axin2 in SW480 cells; [3]): 4380 nM
IC50 [2, 4]: 1010 nM

Structure (SMILES): CC1(C)OC(=O)N(c2ccc(-c3cc(-c4cccnc4)cnc3F)cc2)[C@H]1c1ccccc1 [Example 117, (S)-3-(4-(6-fluoro-[3,3′-bipyridin]-5-yl)phenyl)-5,5-dimethyl-4-phenyloxazolidin-2-one]
IC50 [1]: 193 nM
EC50 (Axin2 in SW480 cells; [3]): 5740 nM
IC50 [2, 4]: 1050 nM

Structure (SMILES): CC1(C)OC(=O)N(c2ccc(-c3cc(-c4cccnc4)c[nH]c3=O)cc2)[C@H]1c1ccccc1 [Example 118, (S)-5,5-dimethyl-3-(4-(6-oxo-1,6-dihydro-[3,3′-bipyridin]-5-yl)phenyl)-4-phenyloxazolidin-2-one]
IC50 [1]: 150 nM
EC50 (Axin2 in SW480 cells; [3]): > 25000 nM
IC50 [2, 4]: > 10000 nM

Structure (SMILES): CC1(C)OC(=O)N(c2ccc(-c3ccc[nH]c3=O)cc2)[C@H]1c1ccccc1 [Example 119, (S)-5,5-dimethyl-3-(4-(2-oxo-1,2-dihydropyridin-3-yl)phenyl)-4-phenyloxazolidin-2-one]
IC50 [1]: 1350 nM
EC50 (Axin2 in SW480 cells; [3]): > 25000 nM
IC50 [2, 4]: > 10000 nM

Structure (SMILES): CC1(C)OC(=O)N(c2ccc(-c3cc(-c4nccc(C#N)n4)c[nH]c3=O)cc2)[C@H]1c1ccccc1 [Example 120, (S)-2-(5-(4-(5,5-dimethyl-2-oxo-4-phenyloxazolidin-3-yl)phenyl)-6-oxo-1,6-dihydropyridin-3-yl)pyrimidine-4-carbonitrile]
IC50 [1]: 75.8 nM
EC50 (Axin2 in SW480 cells; [3]): 825 nM
IC50 [2, 4]: 2360 nM

Structure (SMILES): CC1(C)OC(=O)N(c2ccc(C(=O)Nc3cccc4cccnc34)cc2)[C@H]1c1ccncc1 [Example 126, (S)-4-(5,5-dimethyl-2-oxo-4-(pyridin-4-yl)oxazolidin-3-yl)-N-(quinolin-8-yl)benzamide]
IC50 [1]: 272 nM
EC50 (Axin2 in SW480 cells; [3]): 4620 nM
IC50 [2, 5]: 761 nM

Structure (SMILES): CC1(C)OC(=O)N(c2ccc(-n3cc(-c4ncccn4)ccc3=O)cc2)[C@H]1c1ccccc1 [Example 127, (S)-5,5-dimethyl-3-(4-(2-oxo-5-(pyrimidin-2-yl)pyridin-1(2H)-yl)phenyl)-4-phenyloxazolidin-2-one]
IC50 [1]: 280 nM
EC50 (Axin2 in SW480 cells; [3]): 6270 nM
IC50 [2, 4]: 1100 nM

Structure (SMILES): CC1(C)OC(=O)N(c2ccc(-c3cc(-c4ncccn4)ncc3F)cc2)[C@H]1c1ccccc1 [Example 129, (S)-3-(4-(5-fluoro-2-(pyrimidin-2-yl)pyridin-4-yl)phenyl)-5,5-dimethyl-4-phenyloxazolidin-2-one]
IC50 [1]: 1830 nM
EC50 (Axin2 in SW480 cells; [3]): > 25000 nM
IC50 [2, 4]: > 10000 nM

IC50 [1]: 783 nM
EC50 (Axin2 in SW480 cells; Homo sapiens, SW480, 24 h): > 25000 nM
IC50 [2, 5]: > 10000 nM
Structure (SMILES): CC1(C)OC(=O)N([C@H]2CC[C@H](c3cc(C4=NCCCN4)c[nH]c3=O)CC2)[C@H]1c1ccccc1 [Example 130, (S)-5,5-dimethyl-3-((1r,4S)-4-(2-oxo-5-(1,4,5,6-tetrahydropyrimidin-2-yl)-1,2-dihydropyridin-3-yl)cyclohexyl)-4-phenyloxazolidin-2-one]
